# Results as given in US9662404B2, “Compositions and methods for the delivery of molecules into live cells” (The Texas A&M University System, priority 2013, dated 2017).
# Legend:
# HeLa cells [1] = assay: Delivery of peptides inside live cells, internalization assessed by fluorescence microscopy; type: cell-based; settings: 1 h incubation
# Experimental: The TAT, dTAT and acTAT peptides were incubated for 1 h with several cell lines and internalization was assessed by fluorescence microscopy. […] See also FIG. 5. […] The cell lines HeLa, NIH 3T3, COLO 316 and HaCaT were incubated with 5 μM dTAT for 1 h, washed and imaged. […] After imaging, cells were incubated at 37° C. in a humidified atmosphere containing 5% CO2 for 24 h, washed and imaged again. […] Cell viability was assessed by exclusion of the cell-impermeable nuclear stain SYTOX® Blue at both 1 h and 24 h time point. […] Inverted monochrome (black=fluorescence signal, white-no signal) fluorescence images were made of HeLa cells incubated with 10 or 20 μM of TAT for 1 h.
# Live cells from different lines (HeLa, HaCat, NIH 3T3) were grown in Dulbecco's […] (DMEM) (Fisher) supplemented with 10% fetal bovine serum (FBS) (Fisher) and kept at 37° C. in a humidified atmosphere containing 5% CO2. Cells were then seeded in 8-well dishes so that the cells were 80%-90% confluent after 48 h. […] The media (nrL-15) used for incubation lacks cysteine to avoid reduction of the disulfide bond of dTAT. Cells were then incubated with different concentrations of the acTAT, TAT, or dTAT at 37° C. for 1 h. […] Images were collected using a Rolera-MGI Plus back-illuminated EMCCD camera (Qimaging, Surrey, BC, Canada). Images were acquired using bright field imaging and three standard fluorescence filter sets: CFP (Ex=436±10 nm/Em=480±20 nm), RFP (Ex=560±20 nm/Em=630±35 nm), and FITC (Ex=488±10 nm/Em=520±20 nm). The fluorescence intensities of different cells were measured with the SlideBook 4.2 software (Olympus, Center Valley, Pa.) and the average fluorescence intensity was determined for each condition. It has been previously reported that CPPs labeled with fluorophores such as TMR can photosensitize membranes and cause endosomal leakage upon light irradiation. See, Srinivasan, D. et al., “Conjugation to the cell-penetrating peptide TAT potentiates the photodynamic effect of carboxytetramethylrhodamine,” PloS one 6:e17732 (2011) and Muthukrishnan, N., et al., “Synergy Between Cell-Penetrating Peptides and Singlet Oxygen Generators Leads to Efficient Photolysis of Membranes,” Photochemistry and Photobiology 89:625-630 (2012), each incorporated herein by reference in its entirety. […] First, all delivery experiments were performed under conditions of minimal light irradiation (dark room with dim red light). When fluorescence imaging is required, probes (e.g., SNAP surface 488, EGFP) are imaged before dTAT is, thereby minimizing the possible effect of light on endosomal release. For experiments performed with Cre and Hoxb4, cells are not imaged and not exposed to light (not at all for Hoxb4, 12 h after incubation for Cre).
# HeLa cells [2] = assay: Quantitative determination of peptide uptake inside cells (bulk fluorescence of cell lysates); type: cell-based; settings: acTAT 5-25 μM (FIG. 23)
# Experimental: HeLa cells were seeded in a 48 well dish, grown and washed as described above. For the peptide uptake experiment, each well was incubated for 1 h with varying concentration of acTAT, TAT or dTAT (range: 5-25 μM peptide concentration). For the titration experiment, cells were incubated with dTAT (5 μM) and varying concentrations of DEAC-K9 (range: 1-20 μM). Cells were then washed with PBS and nrL-15 and imaged. Multiple images for each condition were obtained and processed. To lyse cells, nrL-15 was removed from the wells and a total of 100 μL of HeLa cell lysis Buffer (50 mM Tris pH 7.5, 2 mM EDTA, 2 mM DTT, 0.1% Triton X-100) was incubated with cells for 5 min. The cells were lysed and scraped off the dish and pipetted into a 1.5 mL microcentrifuge tube. The cell lysates were centrifuged at 13.2K RPM for 25 min. […] The fluorescence from the cell lysates were measured using a plate reader equipped with a fluorescence module (Ex==525, Em=580-640 nm) (GloMax®-Multi+ Detection System, Promega, Fitchburg, Wis.). For the titration experiment, 80 μL of supernatant was diluted to a total volume of 100 μL and the bulk fluorescence was measured using a SLM-8000C fluorometer (Ex=435 nm, Em=465-475 nm) (SLM Instruments, Bath, UK). The fluorescence emission was averaged and recorded. […] The absorbance at 600 nm was measured using the plate reader. […]
# HeLa cells [3] = assay: Effect of endocytic inhibitors on cytosolic delivery of dTAT; type: cell-based; settings: 50 μM amiloride or 200 nM bafilomycin pre-treatment, then 5 μM dTAT and inhibitor
# Experimental: (§1) FIGS. 8A-8C illustrate that dTAT mediates endosomal escape. (FIG. 8A) Effect of endocytic inhibitors on the cellular distribution of dTAT. HeLa cells were pre-treated with 50 μM amiloride or 200 nM bafilomycin for 30 and 20 min respectively, washed, and incubated with 5 μM dTAT and inhibitor. […] Scale bar, 10 μm. […] A schematic illustration of the experimental steps is shown (top). First, cells were incubated with 5 μM DEAC-K9 for 1 h and washed. Inverted monochrome images show a fluorescence punctuate distribution after incubation with DEAC-K9 alone. The same cells were then incubated with 5 μM dTAT for 1 h. Images show a redistribution of DEAC-K9 to the cytosol and nucleus (inhibited by bafilomycin). Scale bars, 10 μm. (FIG. 8C) The endosomolytic activity of dTAT is highly efficient. HeLa cells expressing SNAPH2B were incubated with 5 μM dTAT and 5 μM SNAP-Surface® 488. Fluorescence images show accumulation of SNAP-Surface® 488 in the nucleus. […] Small panels show cytosolic and nuclear fluorescence of TMR. Scale bars, 10 μm.
# (§2) To test whether endosomal escape is involved in delivery of dTAT, the effects of amiloride, a macropinocytosis inhibitor, and bafilomycin, an inhibitor of endosomal acidification, were assessed. […] Cells were then washed and incubated with dTAT (FIG. 8B). […] This redistribution was however inhibited by bafilomycin.
# HeLa cells [4] = assay: dTAT-induced cytosolic release of DEAC-K9 trapped inside endosomes; type: cell-based
# Experimental: as §1, §2
# [5] = tested on: HeLa transfected with the pCALNL-GFP plasmid; type: cell-based
# Experimental: The number of cells in the images was approximately the same as assessed by bright field microscopy (1,000 cells/experiment, experiments in triplicate, average and standard deviations represented). Scale bars, 100 μM.
# To further confirm that functional proteins can penetrate cells upon incubation with dTAT, delivery of Cre recombinase was tested. In this assay, Cre induces recombination of a loxP-STOP-loxP sequence upstream of the egfp gene of a reporter plasmid.
# NIH 3T3 cells = assay: HoxB4 and TAT-HoxB4 delivery, luciferase reporter under a HoxB4-inducible promoter; type: cell-based, murine
# Experimental: Next, the delivery of the therapeutically important transcription factor HoxB4 was tested. HoxB4 can penetrate cells by itself or when fused to the […] TAT and activate transcription. […] NIH 3T3 cells were transfected with a vector containing the luciferase gene under a HoxB4-inducible promoter and with a β-galactosidase reporter as internal control. Cells were incubated with HoxB4 or TAT-HoxB4, in the absence or presence of dTAT for 1.5 h. Cells were then lysed and luciferase expression was assessed by measuring the luminescence of cell lysates normalized to β-galactosidase activity. […] These values are consistent with previously published reports. In contrast, addition of dTAT (3 μM), led to a luciferase induction of 53.1 and 307.4, respectively. The luciferase induction was therefore increased 24-fold in the presence of dTAT for HoxB4 and 61-fold for TAT-HoxB4. […] While increasing the transcriptional output of HoxB4 is valuable, high levels of HoxB4 expression can result in anti-proliferative and transforming effects. Precisely controlling the level and activity of HoxB4 inside cells is therefore important to achieve a desirable biological outcome. Because dTAT appears to act independently of the molecules used for co-incubation in our assays, it was hypothesized that it might be possible to titrate the amount of protein that penetrates cells by varying the protein concentration in the media while keeping dTAT concentration constant. Under this scenario, the efficiency of endosomal escape should remain unaffected but the amount of material released from endosomes should change.
# The murine fibroblast cell line (NIH-3T3, stably transfected with the E2A-PBX vector), the luciferase reporter vector, pML (5×HOX/PBX; contains a promoter with binding sites for HOXB4 and PBX) and the β-gal internal control vector used in the following studies were kindly provided by P. Zandstra (University of Toronto, Ontario, Canada). The cells were initially cultured in 100 mm dishes at 37° C. with 5% CO2 in DMEM supplemented with 10% FBS. For experimental purposes, however, cells were seeded in 24-well plates at a density of 5-6×10^4 cells/well for 24 hours. Subsequently, cells were co-transfected with 0.8 μg/mL of pML (5×HOX/PBX) and of the β-gal internal control vector using Lipofectamine 2000. Twelve hours post-transfection, cells were washed and incubated with TAT-HoxB4 or HoxB4 (both at 200 nM, unless otherwise noted; see below) with or without TAT or dTAT in nrL-15 for 90 min. Some cells were also incubated with TAT-mCherry (200 nM) with and without the peptides. After incubation, all cells were washed with PBS and lysed according to the manufacturer's protocol for the reporter lysis buffer (RLB) (Promega). For titration experiments, the same protocol was followed, with the exception that HoxB4 concentrations were varied (25, 50, 100, 150 and 200 nM). In order to quantitate the luciferase reporter activity, 100 μL of luciferase assay reagent (Promega) was added to 20 μL of cell lysate and bioluminescence was immediately measured using a SpectraMaxL luminometer (Sunnyvale, Calif.). […] Absorbance was then measured at 450 nm using the plate reader. Since the absorption spectrum of the chromophore (TMR) conjugated to the peptide used in this study overlaps with that of β-gal, 20 μL of cell lysate containing the peptide was also diluted with 180 μL of the lysis buffer and absorbance values obtained at 450 nm were subtracted from that of the β-gal absorbance values. […]
molecule,measurement,setting,value
C(S—CH2CONH2)K(ε-NH-TMR)TAT [acTAT],cellular localization of peptide fluorescence,HeLa cells [1]; 1-20 μM,punctate distribution
same,endosomal escape when internalized amount is above the dTAT threshold level,HeLa cells [2],does not achieve endosomal escape
N=C(N)NC(=O)c1nc(Cl)c(N)nc1N [amiloride],effect of inhibitor on cytosolic delivery of dTAT,HeLa cells [3],inhibited the cytosolic delivery of dTAT
"CO/C1=C\C(C)=C\[C@@H](C)[C@@H](O)[C@@H](C)C/C(C)=C/C=C/[C@H](OC)[C@@H]([C@@H](C)[C@@H](O)[C@H](C)[C@@]2(O)C[C@@H](O)[C@H](C)[C@@H](C(C)C)O2)OC1=O [bafilomycin, reference compound]",effect of inhibitor on cytosolic delivery of dTAT,HeLa cells [3],inhibited the cytosolic delivery of dTAT
same,effect of bafilomycin on dTAT-induced DEAC-K9 redistribution,HeLa cells [4],inhibited
"CK(ε-NH-TMR)TAT ({Cys-K(TMR)}-RKKRRQRRRG-NH2) [monomer product: cysteine, TMR-modified lysine, TAT CPP domain … with C-terminal glycine amide]",cellular localization of peptide fluorescence,HeLa cells [1]; 20 μM,many cells display cytosolic fluorescence
same,cellular localization of peptide fluorescence,HeLa cells [1]; up to 10 μM,localized inside endosomes
same,percentage of EGFP+ cells,[5],4.8%
HoxB4: transcription factor with therapeutic potential for in vitro expansion of hematopoietic stem cells,luciferase induction versus HoxB4 concentration,"NIH 3T3 cells; HoxB4 25-200 nM, dTAT 3 μM",responded linearly with the concentration of HoxB4 in the media
same,increase in luciferase activity over cells not treated with protein,"NIH 3T3 cells; protein 200 nM alone, 1.5 h",2.2 fold
same,luciferase induction,"NIH 3T3 cells; protein 200 nM with dTAT 3 μM, 1.5 h",53.1 fold
same,increase of luciferase induction in the presence of dTAT over protein alone,"NIH 3T3 cells; protein 200 nM, dTAT 3 μM",24 fold
